According to US20060148858A1, “1, 2-Azole derivatives with hypoglycemic and hypolipidemic activity” (priority 2002, published 2006):
Read-outs that look alike come from different tables or passages of the source.

Assays:
KKAY mice [1] = test: Plasma anti-arteriosclerosis index-enhancing action in mice (Test Example 2); assay type: in vivo; details: Mus musculus, po, 96 h, 0.005% in powdery diet, four days, percent increase of (HDL cholesterol/total cholesterol)x100, non-treatment group taken as 100%
Experimental: Test compounds were mixed in a powdery diet (CE-2, Japan Clea) at the concentration of 0.005%, and freely given to KKAY mice (9 to 12 weeks old, 5 mice per group), a model of obese and non-insulin dependent diabetes (type 2 diabetes), for four days. During this period, water was given freely. Blood was sampled from orbital venous plexus and components in plasma separated from blood were determined. Total cholesterol levels were determined by using L type Wako Cholesterol (Wako Pure Chemical Industries, Ltd.). Precipitation reagent for HDL cholesterol (Wako Pure Chemical Industries, Ltd.) was added to a part of the plasma to precipitate non-HDL lipoprotein, and cholesterol (HDL cholesterol) in the resulting supernatant was determined. The plasma anti-arteriosclerosis index [(HDL cholesterol/total cholesterol)×100] was calculated by using these cholesterol levels.
In the Table, “Plasma anti-arteriosclerosis index-enhancing action (%)” represents the percent increase (%) of plasma anti-arteriosclerosis index in the treatment group, when the plasma anti-arteriosclerosis index in the non-treatment group is taken as 100%.

PPARδ-RXRα heterodimer = target: T1, PPARδ-RXRα heterodimer (Homo sapiens, UniProt Q03181); test: PPARδ-RXRα heterodimer ligand activity, luciferase reporter in COS-1 transformant (Test Example 4); assay type: cell-based; details: COS-1 transformant (hPPARδ, hRXRα, reporter), 36-48 hours, concentration for 50% of the maximum fold induction
T1 construct: expressed in transfected cells; host or cells: COS-1
T1 sequence (Q03181 1-441): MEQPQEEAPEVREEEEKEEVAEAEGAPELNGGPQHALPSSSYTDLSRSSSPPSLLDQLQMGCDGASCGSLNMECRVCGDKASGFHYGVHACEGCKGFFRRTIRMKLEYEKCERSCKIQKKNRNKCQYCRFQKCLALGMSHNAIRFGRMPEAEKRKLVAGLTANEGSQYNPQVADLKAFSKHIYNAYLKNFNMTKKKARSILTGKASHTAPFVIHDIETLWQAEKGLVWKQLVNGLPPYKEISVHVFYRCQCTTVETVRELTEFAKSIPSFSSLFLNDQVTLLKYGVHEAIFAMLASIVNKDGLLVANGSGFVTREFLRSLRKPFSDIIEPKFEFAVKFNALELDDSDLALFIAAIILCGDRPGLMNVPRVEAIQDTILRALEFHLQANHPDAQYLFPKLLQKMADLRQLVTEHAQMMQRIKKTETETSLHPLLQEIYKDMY
T1 sequence (P19793 1-462 partner): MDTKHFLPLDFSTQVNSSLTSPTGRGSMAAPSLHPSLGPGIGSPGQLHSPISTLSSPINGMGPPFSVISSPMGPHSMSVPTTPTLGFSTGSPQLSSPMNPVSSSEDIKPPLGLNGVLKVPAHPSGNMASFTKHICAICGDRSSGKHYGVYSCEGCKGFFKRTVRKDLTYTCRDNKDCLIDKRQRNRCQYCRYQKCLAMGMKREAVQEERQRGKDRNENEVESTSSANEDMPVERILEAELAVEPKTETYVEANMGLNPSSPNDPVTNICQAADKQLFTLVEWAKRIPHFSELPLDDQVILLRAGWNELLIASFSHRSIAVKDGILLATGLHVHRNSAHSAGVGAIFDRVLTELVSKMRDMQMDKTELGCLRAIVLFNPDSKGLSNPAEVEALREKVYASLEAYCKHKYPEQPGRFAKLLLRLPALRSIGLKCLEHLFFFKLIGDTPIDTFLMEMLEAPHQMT
In short: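 COS-1 cells transiently co-transfected with human PPARδ, human RXRα, PPRE-luciferase reporter and pRL-tk, then exposed to compound 36-48 h at 37 °C in DMEM with 0.1% fatty acid-free BSA. Luciferase read as fold induction over untreated; EC50 at 50% of maximal fold induction.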

KKAY mice [2] = test: Hypoglycemic and hypolipidemic actions in mice (Test Example 1); assay type: in vivo; details: Mus musculus, po, 96 h, 0.005% in powdery diet, four days, non-treated group taken as 100%
In short: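 KKAY mice (9 to 12 weeks old, 5 per group) were fed diet containing 0.005% test compound ad libitum for four days. Plasma glucose and triglycerides from orbital venous blood were measured enzymatically, reported as % decrease relative to untreated group (100%).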

PPARγ-RXRα heterodimer = target: T2, PPARγ-RXRα heterodimer (Homo sapiens, UniProt P37231); test: PPARγ-RXRα heterodimer ligand activity, luciferase reporter in PPARγ:RXRα:4ERPP/CHO-K1 cells (Test Example 3); assay type: cell-based; details: 18-48 hours, concentration for 50% of the maximum fold induction
T2 construct: expressed in transfected cells; host or cells: CHO-K1
T2 sequence (P37231 1-477 isoform P37231-2): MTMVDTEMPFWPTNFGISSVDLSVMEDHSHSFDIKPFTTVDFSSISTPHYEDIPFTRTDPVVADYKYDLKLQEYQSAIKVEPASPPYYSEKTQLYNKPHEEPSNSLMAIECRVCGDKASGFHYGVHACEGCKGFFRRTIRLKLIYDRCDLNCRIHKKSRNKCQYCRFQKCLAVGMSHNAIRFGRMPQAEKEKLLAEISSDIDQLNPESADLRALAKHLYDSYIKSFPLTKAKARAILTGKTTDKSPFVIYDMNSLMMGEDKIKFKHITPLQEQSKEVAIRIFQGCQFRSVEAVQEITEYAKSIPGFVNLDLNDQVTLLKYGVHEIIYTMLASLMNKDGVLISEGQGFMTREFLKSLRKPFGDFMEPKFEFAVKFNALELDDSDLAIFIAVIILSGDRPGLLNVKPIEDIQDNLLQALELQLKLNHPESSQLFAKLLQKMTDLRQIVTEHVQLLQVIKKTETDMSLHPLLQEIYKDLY
T2 sequence (P19793 1-462 partner): T1 sequence (P19793 1-462 partner)
In short: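 Stable CHO-K1 line co-expressing hPPARγ/RXR with 4ERPP-TK luciferase reporter, 2×10^4 cells per well, treated 18-48 h at 37° C. in HAM F12 with 0.1% fatty acid-free BSA. Luciferase fold induction versus untreated taken as 1; EC50 is concentration giving 50% of maximal fold induction.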

[3] = rate of decrease in blood glucose level, read-out: Hypoglycemic action (%)
[4] = rate of decrease in blood triglyceride level, read-out: Hypolipidemic action (%)

Row | Structure (SMILES) | change in vivo at 0.005 % in diet (KKAY mice [1]) [%] | EC50 (PPARδ-RXRα heterodimer) [nM] | melting point [°C] | inhibition in vivo at 0.005 % in diet (KKAY mice [2]; [3]) [%] | inhibition in vivo at 0.005 % in diet (KKAY mice [2]; [4]) [%] | EC50 (PPARγ-RXRα heterodimer) [nM]
1 | CC(C)c1nn(-c2ccc(C(F)(F)F)cn2)cc1CCCOc1cccc(CC(=O)O)c1 [Example 22, [3-(3-{3-isopropyl-1-[5-(trifluoromethyl)-2-pyridyl]-1H-pyrazol-4-yl}propoxy)phenyl]acetic acid] | 12 | 8.6 | 82 to 83 |  |  | 
2 | CC(C)c1nn(-c2ccc(C(F)(F)F)cn2)cc1CCCOc1cccc(OC(C)(C)C(=O)O)c1 [Example 28, 2-[3-{3-(3-isopropyl-1-[5-(trifluoromethyl)-2-pyridyl]-1H-pyrazol-4-yl}propoxy)phenoxy]-2-methylpropionic acid] | 18 |  | 101 to 102 | 42 | 56 | 35
3 | CCOc1nn(-c2ccc(C(F)(F)F)cn2)cc1CCCOc1cccc(OC(C)(C)C(=O)O)c1 [Example 29, 2-[3-(3-{3-ethoxy-1-[5-(trifluoromethyl)-2-pyridyl]-1H-pyrazol-4-yl}propoxy)phenoxy]-2-methylpropionic acid] | 23 |  | 120 to 121 | 46 | 65 | 160
4 | Cc1nn(-c2ccc(C(F)(F)F)cn2)cc1COc1ccc(OC(C)(C)C(=O)O)cc1 [Example 34, 2-methyl-2-(4-{3-methyl-1-[5-(trifluoromethyl)-2-pyridyl]-1H-pyrazol-4-ylmethoxy}phenoxy)propionic acid] | 20 | 8.1 | 106 to 107 | 49 | 77 | 
5 | CCOc1cc(OCCCc2cn(-c3ccc(C(F)(F)F)cn3)nc2OCC)ccc1CCC(=O)O [Example 35, 3-[2-ethoxy-4-(3-{3-ethoxy-1-[5-(trifluoromethyl)-2-pyridyl]-1H-pyrazol-4-yl}propoxy)phenyl]propionic acid] | 14 | 1.6 | 96 to 97 | 30 | 32 | 
6 | CCCc1nn(-c2ccc(C(F)(F)F)cn2)cc1CCCOc1cccc(OC(C)(C)C(=O)O)c1 [Example 41, 2-methyl-2-[3-(3-{3-propyl-1-[5-(trifluoromethyl)-2-pyridyl]-1H-pyrazol-4-yl}propoxy)phenoxy]propionic acid] | 12 |  | 99 to 100 | 25 | 48 | 77
7 | CCCc1nn(-c2ccc(C(F)(F)F)cn2)cc1CCCOc1c(CC(=O)O)cccc1OC [Example 259, [3-methoxy-2-(3-{3-propyl-1-[5-(trifluoromethyl)-2-pyridyl]-1H-pyrazol-4-yl}propoxy)phenyl]acetic acid] | 25 |  | 122 to 123 | 34 | 70 | 76
8 | O=C(O)Cc1ccccc1OCCCc1cn(-c2ccc(C(F)(F)F)cn2)nc1C1CCCCC1 [Example 302, [2-(3-{3-cyclohexyl-1-[5-(trifluoromethyl)-2-pyridinyl]-1H-pyrazol-4-yl}propoxy)phenyl]acetic acid] | 24 |  | 127 to 128 |  |  | 37
9 | Cn1cc(CC(=O)O)c(OCCCc2cn(-c3ccc(C(F)(F)F)cn3)nc2C2CCCCC2)n1 [Example 303, [3-(3-{3-cyclohexyl-1-[5-(trifluoromethyl)-2-pyridinyl]-1H-pyrazol-4-yl}propoxy)-1-methyl-1H-pyrazol-4-yl]acetic acid] | 14 |  | 157 to 158 |  |  | 52
10 | CCCc1nn(-c2ccc(C(F)(F)F)cn2)cc1CCCOc1nn(CC)cc1CC(=O)O [Example 305, [1-ethyl-3-(3-{3-propyl-1-[5-(trifluoromethyl)-2-pyridinyl]-1H-pyrazol-4-yl}propoxy)-1H-pyrazol-4-yl]acetic acid] | 22 |  | 105 to 106 | 50 | 55 | 
11 | CCn1cc(CC(=O)O)c(OCCCc2cn(-c3ccc(C(F)(F)F)cn3)nc2C(C)C)n1 [Example 313, [1-ethyl-3-(3-{3-isopropyl-1-[5-(trifluoromethyl)-2-pyridinyl]-1H-pyrazol-4-yl}propoxy)-1H-pyrazol-4-yl]acetic acid] | 15 |  | 99 to 100 | 51 | 48 | 
12 | COc1cccc(CC(=O)O)c1OCCCc1cn(-c2ccc(C(C)=O)cn2)nc1C(C)C [Example 332, (2-{3-[1-(5-acetyl-2-pyridinyl)-3-isopropyl-1H-pyrazol-4-yl]propoxy}-3-methoxyphenyl)acetic acid] | 11 |  | 148 to 149 |  |  | 29
13 | CCC(CC)c1nn(-c2ccc(C(F)(F)F)cn2)cc1CCCOc1nn(CC)cc1CC(=O)O [Example 333, [1-ethyl-3-(3-{3-(1-ethylpropyl)-1-[5-(trifluoromethyl)-2-pyridinyl]-1H-pyrazol-4-yl}propoxy)-1H-pyrazol-4-yl]acetic acid] | 11 |  |  |  |  | 61
14 | CCC(CC)c1nn(-c2ccc(C(F)(F)F)nn2)cc1CCCOc1c(CC(=O)O)cccc1OC [Example 339, [2-(3-{3-(1-ethylpropyl)-1-[6-(trifluoromethyl)pyridazin-3-yl]-1H-pyrazol-4-yl}propoxy)-3-methoxyphenyl]acetic acid] | 22 |  | 81 to 82 | 50 | 54 | 
